Source: patent US5670498A, “8-substituted styryl xanthine derivatives” (Kyowa Hakko Kogyo Co., Ltd., priority 1992, dated 1997)
Read-outs that look alike come from different tables or passages of the source.

Tests used:
[1] = biological target: T1, adenosine A2 receptor (Rattus norvegicus, UniProt P30543); test: Adenosine A2 Receptor Binding Test (3H-NECA + CPA, rat corpus striatum); settings: for inhibition at 1 µM: 10^-6 M
T1 construct: from tissue; host or cells: rat corpus striatum (washed membrane suspension)
Procedure: Corpus striatum of a rat was suspended in ice-cooled 50 mM Tris hydroxymethyl aminomethane hydrochloride (Tris HCl) buffer (pH 7.7) by using Polytron homogenizer (manufactured by […] Co.). The suspension was centrifuged (50,000×g, 10 minutes), and the precipitate was suspended again in the same amount of 50 mM Tris HCl buffer. The suspension was centrifuged under the same conditions, and the final precipitate was suspended once again in 50 mM Tris HCl buffer containing 10 mM magnesium chloride and 0.02 unit/mg tissue of adenosine deaminase (manufactured by Sigma Co.) to give a tissue concentration of 5 mg (wet weight)/ml. […] The resulting mixture was allowed to stand at 25° C. for 120 minutes and then rapidly filtered by suction through a glass fiber filter (GF/C, manufactured by Whatman Co.). […] The radioactivity on the filter was determined with a liquid scintillation counter (manufactured by Packard instrument Co.). […] The Ki values shown in the table were calculated by the following equation: [formula]

[2] = Acute Toxicity Test (minimum lethal dose, po); format: in vivo; settings: mice, 7 days after administration
Procedure: Test compounds were orally administered to groups of dd-strain male mice weighing 20±1 g, each group consisting of three mice (po; 300 mg/kg). Seven days after the administration, minimum lethal dose (MLD) of each compound was determined by observing the mortality.
Therefore, these compounds can be safely used in a wide range of doses.

[3] = biological target: T1, adenosine A2 receptor; test: Adenosine A2 Receptor Binding Test (3H-CGS 21680, rat corpus striatum); settings: [3H]CGS 21680, read-out: A2 Receptor Inhibition Rate; for inhibition at 1 µM: 10^-6 M; for inhibition at 0.1 µM: 10^-7 M
Procedure: Adenosine Receptor Antagonistic Activity (Adenosine A2 Receptor Binding Test)
Corpus striatum of a rat was suspended in ice-cooled 50 mM Tris hydroxymethyl aminomethane hydrochloride (Tris HCl) buffer (pH 7.7) by using Polytron homogenizer (manufactured by Kinematicas Co.). The suspension was centrifuged (50,000×g, 10 minutes), and the precipitate was suspended again in the same amount of 50 mM Tris HCl buffer. The suspension was centrifuged under the same conditions, and the final precipitate was suspended once again in 50 mM Tris HCl buffer containing 10 mM magnesium chloride and 0.02 unit/mg tissue of adenosine deaminase (manufactured by Sigma Co.) to give a tissue concentration of 5 mg (wet weight)/ml.
To 1 ml of the tissue suspension thus prepared were added 50 μl of a mixture of N-ethylcarboxamidoadenosine labeled with tritium (^3 H-NECA: 26 Ci/mmol, manufactured by Amersham Co.) (final concentration: 3.8 nM) and cyclopentyladenosine (CPA, manufactured by Sigma Co.) (final concentration: 50 nM), and 50 μl of a test compound. The resulting mixture was allowed to stand at 25° C. for 120 minutes and then rapidly filtered by suction through a glass fiber filter (GF/C, manufactured by Whatman Co.). The filter was immediately washed three times with 5 ml each of ice-cooled 50 mM Tris HCl buffer, and transferred to a vial, and a scintillator (EX-H by Wako Pure Chemical Industries, Ltd.) was added thereto. The radioactivity on the filter was determined with a liquid scintillation counter (manufactured by Packard instrument Co.).
The similar procedure as above was repeated to determine the radioactivity bound to the A2 receptors using 50 μl of CGS 21680 labeled with tritium {^3 H-2-[p-(2-carboxyethyl)phenethylamino]-5'-(N-ethylcarboxamide)adenosine: 40 Ci/mmol, manufactured by New England Nuclear Co. [J. Pharmacol. Exp. Ther., 251, 888 (1989)]} (final concentration: 4.0 nM) in place of 50 μl of the mixture of N-ethylcarboxamidoadenosine labeled with tritium (^3 H-NECA: 26 Ci/mmol, manufactured by Amersham Co.) (final concentration: 3.8 nM) and cyclopentyladenosine (CPA, manufactured by Sigma Co.) (final concentration: 50 nM).
The inhibition rate of the test compound against the binding of A2 receptors (^3 H-CGS 21680 binding) was calculated by the following equation: [formula]

[4] = system: Haloperidol-Induced Catalepsy; test: Effect on Haloperidol-Induced Catalepsy; format: in vivo, male ddY mice; settings: 10 mg/kg po; for Total Score (catalepsy): sum of five mice, 25 points at the full, control 25; for inhibition in vivo at 10 mg/kg: Mus musculus, decrease in total score based on control group, read-out: Remission Rate
Procedure: Effect on Haloperidol-Induced Catalepsy Parkinson's disease is a clinical syndrome caused by degeneration of nigrostriatal dopaminergic neurons. […] The experiment was performed by using several groups of 5-weeks-old male ddY mice (weighing 22 to 24 g, Japan SLC), each group consisting of 5 mice. Haloperidol (Janssen Pharmaceutica) suspended in 0.3% CMC was intraperitoneally administered to each mouse at a dose of 1.0 mg/kg. Test compounds were suspended in injectable distilled water (Otsuka Pharmaceutical Co., Ltd.) containing Tween 80 [polyoxyethylene (20) sorbitan monooleate]. L-DOPA (Kyowa Hakko Kogyo Co., Ltd.) and benserazide hydrochloride (Kyowa Hakko Kogyo Co., Ltd.) were suspended in 0.3% CMC. One hour after the haloperidol administration, the test compound suspensions and the control suspension [injectable distilled water (Otsuka Pharmaceutical Co., Ltd.) containing Tween 80] containing no test compound were orally administered to separate groups of the mice (0.1 ml per 10 g of body weight). One hour after the administration of the test compound, the forelimbs of each mouse and subsequently the hindlimbs of the same mouse were placed on a 4.5 cm-high, 1.0 cm-wide bar and catalepsy was estimated. […] The catalepsy score and the standard of judgment are shown below. […] The effect of the compounds was evaluated by the total of the catalepsy scores of five mice in each group (25 points at the full).

[5] = 10^-4 M, 3H-NECA, read-out: A2 Receptor Inhibition Rate
[6] = 10^-5 M, 3H-NECA, read-out: A2 Receptor Inhibition Rate
[7] = read-out: A2 Receptor Inhibition Rate
[8] = 3H-NECA, read-out: A2 Receptor Inhibition Rate

T1 sequence (P30543 whole entry): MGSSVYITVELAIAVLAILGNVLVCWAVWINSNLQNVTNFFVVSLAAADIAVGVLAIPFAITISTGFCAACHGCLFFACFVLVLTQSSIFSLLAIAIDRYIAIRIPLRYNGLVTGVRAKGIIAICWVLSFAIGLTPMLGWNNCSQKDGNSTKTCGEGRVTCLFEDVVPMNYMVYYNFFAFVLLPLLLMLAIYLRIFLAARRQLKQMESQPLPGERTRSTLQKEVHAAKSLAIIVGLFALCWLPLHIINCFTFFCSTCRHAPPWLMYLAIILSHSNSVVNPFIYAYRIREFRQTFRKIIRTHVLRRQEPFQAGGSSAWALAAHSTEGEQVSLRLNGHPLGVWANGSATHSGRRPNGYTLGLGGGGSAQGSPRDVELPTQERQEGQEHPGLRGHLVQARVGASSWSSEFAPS

Structure (SMILES) | inhibition at 100 µM [1, 5] | inhibition at 10 µM [1, 6] | inhibition at 1 µM [3] | inhibition at 0.1 µM [3] | Total Score (catalepsy) [4] | inhibition in vivo at 10 mg/kg [4] | further results
CCCn1c(=O)c2c(nc(/C=C\c3ccc(C(=O)OC)cc3)n2C)n(CCC)c1=O [Compound 8, (Z)-β-(7-methyl-1,3-dipropylxanthin-8-yl)styrene-4-carboxylic acid methyl ester] | 101% | 92% |  |  |  |  | MLD (minimum lethal dose) [2]: > 300 mg/kg
CCn1c(=O)c2c(nc(/C=C/c3ccc(C(C)=O)c(OC)c3)n2C)n(CC)c1=O [Compound 30, (E)-8-(4-Acetyl-3-methoxystyryl)-1,3-diethyl-7-methylxanthine] |  |  | 95% | 83% |  |  | 
CCn1c(=O)c2c(nc(/C=C/c3ccc(C(=O)OC)cc3OC)n2C)n(CC)c1=O [Compound 20, (E)-β-(1,3-Diethyl-7-methylxanthin-8-yl) -2-methoxystyrene-4-carboxylic acid methyl ester] |  |  | 88% | 69% |  |  | 
CCCn1c(=O)c2c(nc(/C=C/c3ccc(C(=O)OC)cc3OC)n2C)n(CCC)c1=O [Compound 21, (E)-2-Methoxy-β-(7-methyl-1,3-dipropylxanthin-8-yl)styrene-4-carboxylic acid methyl ester] |  |  | 94% | 80% |  |  | 
CCCn1c(=O)c2c(nc(/C=C/c3ccc(OC)c(C(C)=O)c3)n2C)n(CCC)c1=O [Compound 26, (E)-8-(3-Acetyl-4-methoxystyryl)-7-methyl-1,3-dipropylxanthine] |  |  | 93% | 66% |  |  | 
CCn1c(=O)c2c(nc(/C=C/c3ccc(F)c(C(C)=O)c3)n2C)n(CC)c1=O [Compound 28, (E)-8-(3-Acetyl-4-fluorostyryl)-1,3-diethyl-7-methylxanthine] |  |  | 86% | 76% |  |  | 
CCCn1c(=O)c2c(nc(/C=C/c3cc(OC)c(OC)cc3S(=O)(=O)O)n2C)n(CCC)c1=O [Compound 1, (E)-4,5-Dimethoxy-β-(7-methyl-1,3-dipropylxanthin-8-yl)styrene-2-sulfonic acid] |  |  |  |  |  |  | Ki ([1]; 3H-NECA): 670 nM; inhibition at 10 µM [1, 7]: 80%; inhibition at 100 µM [1, 7]: 95%; MLD (minimum lethal dose) [2]: > 300 mg/kg
CCCn1c(=O)c2c(nc(/C=C/c3cc(OC)c(OC)c(OC)c3S(=O)(=O)O)n2C)n(CCC)c1=O [Compound 11, (E)-β-(7-Methyl-1,3-dipropylxanthin-8-yl)-3,4,5-trimethoxystyrene-2-sulfonic acid] | 93% | 93% |  |  | 19 | 24% | 
CCCn1c(=O)c2c(nc(/C=C/c3cc(OC)c(OC)cc3S(=O)(=O)N(C)CCN(C)C)n2C)n(CCC)c1=O [Compound 6, (E)-N-[2-(Dimethylamino)ethyl]-N-methyl-4,5-dimethoxy-β-(7-methyl-1,3-dipropylxanthin-8-yl)styrene-2-sulfonamide] |  |  |  |  | 19 | 24% | 
CCCn1c(=O)c2c(nc(/C=C/c3ccc(C(=O)OC)cc3)n2C)n(CCC)c1=O [Compound 7, (E)-β-(7-Methyl-1,3-dipropylxanthin-8-yl)styrene-4-carboxylic acid methyl ester] | 92% | 77% |  |  | 11 | 56% | 
CCCn1c(=O)c2c(nc(/C=C/c3cc(OC)c(OC)c(OC)c3S(=O)(=O)N(C)CCN(C)C)n2C)n(CCC)c1=O [Compound 13, (E)-N-[2-(Dimethylamino)ethyl]-N-methyl-β-(7-methyl-1,3-dipropylxanthin-8-yl)-3,4,5-trimethoxystyrene-2-sulfonamide] | 89% | 69% |  |  |  |  | 
CCCn1c(=O)c2c(nc(/C=C/c3ccc(C(=O)O)cc3)n2C)n(CCC)c1=O [Compound 19, (E)-β-(7-Methyl-1,3-dipropylxanthin-8-yl)styrene-4-carboxylic acid] |  |  |  |  |  |  | inhibition at 1 µM [1, 8]: 94%; inhibition at 0.1 µM ([1]; 10^-7 M, 3H-NECA, read-out: A2 Receptor Inhibition Rate): 68%
CCCn1c(=O)c2c(nc(/C=C/c3cc(OC)c(OC)c(OC)c3S(N)(=O)=O)n2C)n(CCC)c1=O [Compound 12, (E)-β-(7-Methyl-1,3-dipropylxanthin-8-yl)-3,4,5-trimethoxystyrene-2-sulfonamide] | 76% | 68% |  |  | 15 | 40% | 
CCCN(CCC)S(=O)(=O)c1cc(OC)c(OC)cc1/C=C/c1nc2c(c(=O)n(CCC)c(=O)n2CCC)n1C [Compound 3, (E)-N,N-Dipropyl-4,5-dimethoxy-β-(7-methyl-1,3-dipropylxanthin-8-yl)styrene-2-sulfonamide] | 91% | 92% |  |  | 20 | 20% | 
CCn1c(=O)c2c(nc(/C=C/c3ccc(C(=O)O)cc3OC)n2C)n(CC)c1=O [Compound 22, (E)-β-(1,3-Diethyl-7-methylxanthin-8-yl)-2-methoxystyrene-4-carboxylicacid] |  |  | 92% | 60% |  |  | 
CCCn1c(=O)c2c(nc(/C=C\c3ccc(C(=O)O)cc3)n2C)n(CCC)c1=O [Compound 18, (Z)-β-(7-Methyl-1,3-dipropylxanthin-8-yl)styrene-4-carboxylic acid] |  |  |  |  |  |  | inhibition at 1 µM [1, 8]: 72%; MLD (minimum lethal dose) [2]: > 300 mg/kg
CCCn1c(=O)c2c(nc(/C=C/c3cc(OC)c(OC)cc3S(=O)(=O)Nc3ccccc3)n2C)n(CCC)c1=O [Compound 10, (E)-N-Phenyl-4,5-dimethoxy-β-(7-methyl-1,3-dipropylxanthin-8-yl)styrene-2-sulfonamide] |  |  |  |  | 17 | 32% | 
CCCn1c(=O)c2c(nc(/C=C/c3cc(C)c(C)cc3S(=O)(=O)O)n2C)n(CCC)c1=O [Compound 15, (E) -4,5-Dimethyl-β-(7-methyl-1,3-dipropylxanthin-8-yl)styrene-2-sulfonicacid] |  |  |  |  |  |  | MLD (minimum lethal dose) [2]: > 300 mg/kg
CCCn1c(=O)c2c(nc(/C=C/c3cc(OC)c(OC)cc3S(=O)(=O)N3CCCCC3)n2C)n(CCC)c1=O [Compound 4, (E)-4,5-Dimethoxy-β-(7-methyl-1,3-dipropylxanthin-8-yl)-2-piperidinosulfonylstyrene] | 60% | 74% |  |  | 11 | 56% | 
CCCn1c(=O)c2c(nc(/C=C/c3cc(OC)c(OC)cc3S(=O)(=O)N(CC)CC)n2C)n(CCC)c1=O [Compound 2, (E)-N,N-Diethyl-4,5-dimethoxy-β-(7-methyl-1,3-dipropylxanthin-8-yl)styrene-2-sulfonamide] | 112% | 97% |  |  |  |  | 
CCCn1c(=O)c2c(nc(/C=C/c3ccc(S(=O)(=O)O)cc3)n2C)n(CCC)c1=O [Compound 31, (E)-β-(7-Methyl-1,3-dipropylxanthin-8-yl)styrene-4-sulfonic acid] |  |  | 89% | 56% |  |  | 
CCCn1c(=O)c2c(nc(/C=C/c3ccc(C(=O)O)cc3OC)n2C)n(CCC)c1=O [Compound 23, (E)-2-Methoxy-β-(7-methyl-1,3-dipropylxanthin-8-yl)styrene-4-carboxylic acid] |  |  | 95% | 70% |  |  | 
